Data from US20260232717A1, “PARENTERAL NUTRITION FORMULATION COMPRISING VITAMIN B12” (BAXTER INTERNATIONAL INC., priority 2020, published 2026).
Marks after values point to notes of the source that are not given here.

What was measured:
Type in all cases: physicochemical
[1] = Studies of cyanocobalamin in lipid emulsions (summary statement)
Protocol: (storage for 3 months at 40° C.), even though hydroxocobalamin seems to remain relatively stable for about 6 months at 40° C.

[2] = Stability of vitamins in 35% glucose solution during sterilization (Cycles 1-4) and storage; conditions: for concentration, T1M40° C. / concentration, T3M40° C. / concentration, Cycle 3 T0 / concentration, T6M40° C. / concentration, Cycle 4 T0 / concentration, Unsterilized T0 / concentration, T6M40° C., sum of cyanocobalamin and hydroxocobalamin: 35% glucose solution; for concentration, T1M40° C.: 1 month 40° C.; for concentration, T3M40° C.: 3 months 40° C.; for concentration, Cycle 3 T0: Cycle 3 (water spray sterilization, Co = 25 minutes); for concentration, Cycle 3 T0 / concentration, Cycle 4 T0: after sterilization; for concentration, T6M40° C. / concentration, T6M40° C., sum of cyanocobalamin and hydroxocobalamin: 6 months 40° C.; for concentration, Cycle 4 T0: Cycle 4 (water spray sterilization, Co = 19 minutes); for concentration, Unsterilized T0: before sterilization
Protocol: (§1) For testing the stability of vitamin B12 in formulation as they are typically used in parenteral nutrition, a 35% glucose solution, a 14.2% amino acid formulation such as found, for example, in Olimel N9E (Baxter Int. Inc.), and a 20% lipid emulsion such as found in Clinoleic 20% (Baxter Int. Inc.) were supplemented with different vitamins combinations which always included vitamin B12. KC1 was added into the glucose solution to understand if it has an effect on the stability of vitamin B12. Vitamin B12 was introduced as […]. Ascorbyl palmitate was added to the lipid emulsion formulation as a stabilizing agent due to its antioxidant properties. In addition, two separate micellar solutions (“Vit A” and “Vit B”, see Table 5) comprising certain vitamins to be assessed with regard to degradation (B3, B6, B8, B9, B12, C) but formulated with different excipients as micellization agents were tested for vitamin B12 stability. Vit A consisted of a solution of mixed micelles with ascorbyl palmitate as a potential stability enhancer. Vit B was formulated with a mix of polysorbates, PEG and sorbitol to form micelles. The micellar solutions were prepared by mixing, under high speed, a solution composed of glycocholic acid and lecithins dissolved in water. In case of Vit B, the glycocholic acid and lecithin were replaced by PEG and polysorbate. All formulations were provided in standard flexible containers and overpouched with an aluminum overpouch for subsequent sterilization. For an overview over formulations and conditions see Table 5.
(§2) All samples were submitted to two different sterilization technologies. Steam sterilization targeting a Fo=8 min was. used for large volumes (400/800 ml, Cycle 2) and for small volumes (25/50 ml, Cycle 1) as lined out in Table 5 above. The same samples were sterilized by water spray sterilization with a serial tower continuous sterilization equipment with two different exposure times (Cycles 3 (25 min.) and 4 (19 min.)).
(§3) The vitamin recovery was then compared between the different sterilization cycles and formulations to understand the impact of the formulation and the sterilization technology used on their respective short- and long-term stability. Therefore, after sterilization, the samples were stored at 40° C./[…] for 6 months to evaluate the recovery of vitamin B12 at TIM, T3M and T6M. Besides, backup samples were stored at 5° C. Finally, some samples were also stored at 25° C./40% RH to provide for real time stability data.

[3] = Stability of vitamin B12 in 20% lipid emulsion with ascorbyl palmitate during sterilization (Cycles 1-4) and storage; conditions: for concentration, T1M40° C.: 1 month 40° C.; for concentration, T6M40° C., sum of cyanocobalamin and hydroxocobalamin: 6 months 40° C.
Protocol: as §1, §2, §3
Vitamin B12 was also considerably degraded in the lipid emulsion (Tables 8 through 11). […] It should thus be avoided in formulations according to the invention.

[4] = Cycle 1 (steam sterilization), 25 ml
[5] = Cycle 2 (steam sterilization), 800 ml

| Compound | concentration, T1M40° C. [2, 4] | concentration, T3M40° C. [2, 4] | concentration, T1M40° C. [2, 5] | concentration, T3M40° C. [2, 5] | concentration, Cycle 3 T0 [2] | concentration, T3M40° C. ([2]; Cycle 3 (water spray)) | concentration, T6M40° C. ([2]; Cycle 3 (water spray)) | concentration, Cycle 4 T0 ([2]; 800 ml) | concentration, T3M40° C. ([2]; Cycle 4 (water spray)) | concentration, T6M40° C. ([2]; Cycle 4 (water spray)) | concentration, Unsterilized T0 ([2]; Table 6A (25 ml)) | concentration, Unsterilized T0 ([2]; Table 6B (800 ml)) | concentration, Unsterilized T0 ([2]; Table 7A) | concentration, Unsterilized T0 ([2]; Table 7B, 800 ml) | further results |
| --- | --- | --- | --- | --- | --- | --- | --- | --- | --- | --- | --- | --- | --- | --- | --- |
| C/C1=C2/[N-][C@H]([C@H](CC(N)=O)[C@@]2(C)CCC(=O)NC[C@@H](C)OP(=O)([O-])O[C@H]2[C@@H](O)[C@@H](n3cnc4cc(C)c(C)cc43)O[C@@H]2CO)[C@]2(C)N=C(/C(C)=C3N=C(/C=C4N=C1[C@@H](CCC(N)=O)C\4(C)C)[C@@H](CCC(N)=O)[C@]\3(C)CC(N)=O)[C@@H](CCC(N)=O)[C@]2(C)CC(N)=O.[Co+3].[OH-] [hydroxocobalamin] |  |  |  |  |  |  |  |  |  |  |  |  |  |  | time hydroxocobalamin remains relatively stable ([1]; lipid emulsions, 40° C.): about 6 months |
| Cc1ncc(CO)c(CO)c1O [Batch B6, Pyridoxine] | 6400 ng/mL | 6500 ng/mL | 5930 ng/mL | 6000 ng/mL | 6230 ng/mL | 6100 ng/mL | 6040 ng/mL | 6270 ng/mL | 5900 ng/mL | 6030 ng/mL | 6400 ng/mL | 6400 ng/mL | 6610 ng/mL | 6610 ng/mL |  |
| O=C(O)c1cccnc1 [Batch B3, niacin] | 49300 ng/mL | 50200 ng/mL | 50600 ng/mL | 51200 ng/mL | 50500 ng/mL | 50300 ng/mL | 48270 ng/mL | 50400 ng/mL | 51000 ng/mL | 49350 ng/mL | 51100 ng/mL | 51100 ng/mL | 52800 ng/mL | 52800 ng/mL |  |
| cobalamin [Batch B12] | 4.5 ng/mL | 3.7 ng/mL | 4 ng/mL | 3.6 ng/mL | 5.1 ng/mL | 4.1 ng/mL |  | 5.2 ng/mL | 4.1 ng/mL |  | 6.2 ng/mL | 6.2 ng/mL | 6 ng/mL | 6 ng/mL | concentration, Unsterilized T0 ([3]; 20% lipid emulsion with ascorbyl palmitate, Table 8, before sterilization): 15 ng/mL; concentration, T1M40° C. ([3]; 20% lipid emulsion, Cycle 1 (steam sterilization)): 4 ng/mL; concentration, T3M40° C. ([3]; 20% lipid emulsion, Cycle 1 (steam sterilization), 3 months 40° C.): <LOD; concentration, T1M40° C. ([3]; 20% lipid emulsion, Cycle 2 (steam sterilization)): <LOD; concentration, Cycle 2 T0 ([3]; 20% lipid emulsion, Cycle 2 (steam sterilization), after sterilization): 5 ng/mL; concentration, Cycle 3 T0 ([3]; 20% lipid emulsion, Cycle 3 (water spray sterilization), after sterilization): 5 ng/mL; concentration, T6M40° C., sum of cyanocobalamin and hydroxocobalamin ([3]; 20% lipid emulsion, Cycle 3 (water spray)): 3.7 ng/mL; concentration, Unsterilized T0 ([3]; 20% lipid emulsion, Table 10, before sterilization): 14 ng/mL; concentration, Unsterilized T0 ([3]; 20% lipid emulsion, Table 11, before sterilization): 14 ng/mL; concentration, T0 after sterilization ([3]; 20% lipid emulsion, Table 11, head 'Cycle 3', water spray sterilization with serial tower continuous equipment): 6 ng/mL; concentration, T6M40° C., sum of cyanocobalamin and hydroxocobalamin ([3]; 20% lipid emulsion, Table 11, head 'Cycle 3', water spray): 5.5 ng/mL; concentration, T6M40° C., sum of cyanocobalamin and hydroxocobalamin ([2]; Cycle 3 (water spray)): 0.0023* mg/L; concentration, T6M40° C., sum of cyanocobalamin and hydroxocobalamin ([2]; Cycle 4 (water spray)): 0.0031* mg/L |
| cyanocobalamin |  |  |  |  |  |  |  |  |  |  |  |  |  |  | cyanocobalamin detection after 6 months ([2]; glucose solution, Cycles 1 and 2 (steam sterilization), FIG. 2): no cyanocobalamin can be detected; cyanocobalamin detection ([1]; lipid emulsions irrespective of oil source, pH or stabilizing agent, T3M40° C.): no more cyanocobalamin can be detected |
